Source: paper PMC10794144, “A novel antibiotic class targeting the lipopolysaccharide transporter” (Nature, 2024)
In brackets after ≈: the same amount, converted by molar mass. Where two headings read alike, the source gives them in different places. Marks after values point to notes of the source that are not given here.

Experiments:
S. aureus ATCC 29213 = test: microbe, parasite or virus in culture; details: Staphylococcus aureus
Procedure: MIC determinations were performed using the broth microdilution method and in line with CLSI guidelines M07 and M100 (refs. [37],[38]). Bacterial inocula were prepared by diluting a 0.5 McFarland suspension in CAMHB or lysogeny broth (LB) specifically for A. baylyi isolates. […] MIC values of all of the tested antibiotics were read as the lowest compound concentration inhibiting bacterial growth by naked eye or beyond which the OD600 ceased to decrease.

[1] = Human whole blood haemolysis assay; details: human heparinated blood, 10 min 37 °C
Procedure: For the in vitro haemolysis test, blood was provided by Roche medical services through an anonymous blood donation for research program, approved by the Ethics Committee Northwestern Switzerland and Central Switzerland (EKNZ) and collected with informed consent. Blood was collected by venipuncture in ethylenediaminetetraacetic acid (EDTA) and Li-heparin-coated tubes. Plasma was prepared from anticoagulated blood by centrifugation (2,500g; 10 min; at room temperature) and the haematocrit was measured to ensure that it was within normal reference values. Each formulation of compound in saline was added at a concentration of 8 mg ml^−1 into test tubes containing exactly 0.5 ml of heparinated blood to give a final assay volume of 1 ml and a concentration of 4 mg ml^−1 or less (following further dilutions). After incubation in a water bath for 10 min at 37 °C, the tubes were centrifuged (10 min, 1,811g at room temperature) and 100 μl of the supernatant was subsequently transferred into test tubes containing 5 ml Drabkins solution (RANDOX Laboratories) and 1 ml phosphate buffer. Haemoglobin was photometrically determined at 540 nm according to the RANDOX test-kit instructions. The results were expressed as percentage haemolysis extrapolated from an internal standard curve with 0%, 50% and 100% haemolysed blood samples.

[2] = Fraction unbound in mouse plasma; assay type: in vitro ADME
[3] = system: GABA-A (benzodiazapine binding site); test: Off-target screening (CEREP); parameters: species or system rat; details: 10 µM, duplicates
Procedure: (§1) Supplementary Table 1 │ Off-target activity screening f or MCP compou nds […]
(§2) The assays given in the table above were conducted at Eurofins CEREP S A (Celle-Lévescault, France) and were run as single point measurements in duplicates in the presence of 10 µ M of the test compound and reported as percent inhibition of the radioligand signal or control enzymatic activity. n.d., not

C. albicans ATCC 90028 = test: microbe, parasite or virus in culture; details: Candida albicans
[4] = system: GABA Cl- channel receptor; test: Off-target screening (CEREP); assay type: binding, rat; details: 10 µM, duplicates
Procedure: as §1, §2

[5] = system: Ca2+ channel (diltiazem site); test: Off-target screening (CEREP); assay type: binding, rat; details: 10 µM, duplicates
Procedure: as §1, §2

PCP receptor = test: Off-target screening (CEREP); assay type: binding, rat; details: 10 µM, duplicates
Procedure: as §1, §2

panel of 50 off-targets = test: Off-target activity screening, number of hits in panel of 50; assay type: binding; details: > 30% inhibition at 10 μM
HEK293 cells = test: Cell-viability assay (CellTiterGlo); assay type: cell-based; details: Homo sapiens, 24 h, 37 °C, 3.125–100 μM, n = 2
Procedure: Compounds were prepared in serial dilutions (3.125–100 μM in 1% DMSO) and transferred to 384-well plates together with a positive (Staurosporine) and a negative (no compound) control. In total, 25 μl of HEK293 cells (ATCC; verified by short tandem repeat PCR and mycoplasma negative) (50,000 cells per ml) were added in either low-serum-containing (0.5% fetal bovine serum (FBS)) or high-serum-containing (12.5% FBS, 1% BSA) medium (Dulbecco’s modified Eagle medium (DMEM), glucose, L-glutamine). The plates were incubated for 24 h at 37 °C and a mixture of CellTiterGlo and DMEM was added to the plates. After incubation at room temperature, the luminescence signal was read using a BioTeK reader and a calculated IC50 was derived from the data.

[6] = system: GSK-3A (second line so named); test: Off-target screening (CEREP); assay type: biochemical, human; details: 10 µM, duplicates
Procedure: as §1, §2

[7] = system: Nicotinic receptor, neuronal; test: Off-target screening (CEREP); assay type: binding, human; details: 10 µM, duplicates
Procedure: as §1, §2

[8] = system: Nicotinic receptor, muscle; test: Off-target screening (CEREP); assay type: binding, human; details: 10 µM, duplicates
Procedure: as §1, §2

hERG = hERG (Homo sapiens, UniProt Q12809); test: hERG
Chain of hERG (Q12809 whole entry): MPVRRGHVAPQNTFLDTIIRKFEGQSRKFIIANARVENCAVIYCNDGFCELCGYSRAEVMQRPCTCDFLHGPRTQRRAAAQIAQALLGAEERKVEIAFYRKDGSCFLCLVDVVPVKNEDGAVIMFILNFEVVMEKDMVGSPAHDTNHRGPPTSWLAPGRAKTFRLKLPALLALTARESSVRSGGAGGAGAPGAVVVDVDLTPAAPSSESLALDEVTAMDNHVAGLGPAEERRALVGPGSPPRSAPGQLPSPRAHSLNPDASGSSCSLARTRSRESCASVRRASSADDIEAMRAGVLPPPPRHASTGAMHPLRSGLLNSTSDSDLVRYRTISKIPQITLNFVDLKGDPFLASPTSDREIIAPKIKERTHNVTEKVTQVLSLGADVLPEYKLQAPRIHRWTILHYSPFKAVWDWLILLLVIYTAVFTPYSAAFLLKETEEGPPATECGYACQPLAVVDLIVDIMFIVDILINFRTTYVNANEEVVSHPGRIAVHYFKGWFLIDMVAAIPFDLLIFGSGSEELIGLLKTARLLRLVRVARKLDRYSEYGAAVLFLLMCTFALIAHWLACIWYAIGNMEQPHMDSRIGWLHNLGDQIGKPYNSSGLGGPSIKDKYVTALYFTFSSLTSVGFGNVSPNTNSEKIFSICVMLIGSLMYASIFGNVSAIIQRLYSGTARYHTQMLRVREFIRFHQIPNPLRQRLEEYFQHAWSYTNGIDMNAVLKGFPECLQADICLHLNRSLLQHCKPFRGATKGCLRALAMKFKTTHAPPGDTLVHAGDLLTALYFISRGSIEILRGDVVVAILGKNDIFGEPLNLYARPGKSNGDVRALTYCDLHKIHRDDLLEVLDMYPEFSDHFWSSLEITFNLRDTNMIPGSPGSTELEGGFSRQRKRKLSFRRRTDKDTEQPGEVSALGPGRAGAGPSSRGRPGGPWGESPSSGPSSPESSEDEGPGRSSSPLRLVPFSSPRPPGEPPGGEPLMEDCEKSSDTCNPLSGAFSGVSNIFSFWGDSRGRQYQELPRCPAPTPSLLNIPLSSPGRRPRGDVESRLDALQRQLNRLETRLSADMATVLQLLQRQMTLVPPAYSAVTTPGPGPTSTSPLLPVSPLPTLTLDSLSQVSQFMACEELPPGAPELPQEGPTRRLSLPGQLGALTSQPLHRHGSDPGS

A. baumannii = test: Neutropaenic mouse thigh infection model; assay type: in vivo
Procedure: An intramuscular inoculation of a bacterial suspension of approximately 10^6 CFU per thigh was used to induce the infection. Treatment started 2 h after infection. […] In the pneumonia model, an intratracheal inoculation of approximately 10^7 CFU per lung was used to induce the infection. Treatment started 2 h after infection. […] Standard of care antibiotic was tested at a single dose in both infection models. GraphPad Prism 8 was used for graphical presentation and to analyse data.

[9] = ATCC29213, CAMHB, mode of at least three replicates (RO7036668 one replicate)

For `CN1C(=O)[C@H](CCCCN)NC(=O)[C@H](CCCN)NCc2cccnc2Sc2c(Cl)ccc(-c3ccc(C(=O)O)cc3)c2CNC(=O)[C@@H]1Cc1c[nH]c2ccccc12` [RO7202110], the MIC (S. aureus ATCC 29213; [9]) was greater than 64 µg/mL, the “Haemolysis” value [1] was “None” and the “fu (m), fraction unbound in mouse plasma” value [2] was 10%. For the same compound, the percent inhibition [3] was 14%, the MIC (C. albicans ATCC 90028; ATCC90028) was greater than 64 µg/mL and the percent inhibition [4] was -1%. For the same compound, the percent inhibition [5] was 2%, the percent inhibition (PCP receptor) was 9% and the Off-target hits (panel of 50 off-targets) was 2 #. It also gave an IC50 (HEK293 cells) greater than 100 µM, a percent inhibition [6] of -6% and a percent inhibition [7] of 4%. The percent inhibition [8] was 11%, the IC50 (hERG) was greater than 20 µM and the “hERG IC20” value (hERG) was greater than 10 µM.
With `C[C@@H](O)[C@H]1C(=O)N2C(C(=O)O)=C(S[C@@H]3CN[C@H](C(=O)N(C)C)C3)[C@H](C)[C@H]12` [meropenem, reference compound] the MIC (S. aureus ATCC 29213; [9]) was 0.12 µg/mL (≈ 0.313 µM), the MIC (S. aureus ATCC 29213; ATCC29213, read-out: MIC 100%, Study LGC277937, 100%) was 0.12 µg/mL (≈ 0.313 µM) and the MIC (S. aureus ATCC 29213; ATCC29213, read-out: MIC 100%, Study LGC279800, 100%) was no more than 0.06 µg/mL. The MIC (S. aureus ATCC 29213; ATCC29213, read-out: MIC 100%, Study LGC281440, 100%) was 0.12 µg/mL (≈ 0.313 µM), the MIC (S. aureus ATCC 29213; ATCC29213, read-out: MIC 100%, Study LGC282160, 100%) was no more than 0.06 µg/mL and the MIC (S. aureus ATCC 29213; ATCC29213, read-out: MIC 100%, Study LGC282623, 100%) was 0.12 µg/mL (≈ 0.313 µM). It also gave an MIC (S. aureus ATCC 29213; ATCC29213, read-out: MIC 100%, Study LGC283932, 100%) of 0.12 µg/mL (≈ 0.313 µM), an MIC (S. aureus ATCC 29213; ATCC29213, read-out: MIC 100%, Study LGC284200, 100%) of 0.12 µg/mL (≈ 0.313 µM) and an MIC (S. aureus ATCC 29213; ATCC29213, read-out: MIC 100%, Study LGC284879, 100%) of 0.12 µg/mL (≈ 0.313 µM). It also gave an MIC (S. aureus ATCC 29213; ATCC29213, read-out: MIC 100%, Study LGC285582, 100%) of 0.12 µg/mL (≈ 0.313 µM), an MIC (S. aureus ATCC 29213; ATCC29213, read-out: MIC 100%, Study LGC286210, 100%) of 0.25 µg/mL (≈ 0.652 µM) and an MIC (S. aureus ATCC 29213; ATCC29213, read-out: MIC 100%, Study LGC293598, 100%) of 0.12 µg/mL (≈ 0.313 µM). For the same compound, the MIC (S. aureus ATCC 29213; ATCC29213, read-out: MIC 100%, Study LGC294355, 100%) was no more than 0.06 µg/mL, the MIC (S. aureus ATCC 29213; ATCC29213, read-out: MIC 100%, Study LGC295147, 100%) was 0.12 µg/mL (≈ 0.313 µM) and the MIC (S. aureus ATCC 29213; ATCC29213, read-out: MIC 100%, Study LGC296813, 100%) was no more than 0.06 µg/mL. For the same compound, the MIC (S. aureus ATCC 29213; ATCC29213, read-out: MIC 100%, Study LGC299544, 100%) was 0.12 µg/mL (≈ 0.313 µM), the MIC (S. aureus ATCC 29213; ATCC29213, read-out: MIC 100%, Study LGC301026, 100%) was 0.12 µg/mL (≈ 0.313 µM) and the MIC (S. aureus ATCC 29213; ATCC29213, read-out: MIC 100%, Study LGC308175, 100%) was no more than 0.06 µg/mL. It also gave an MIC (S. aureus ATCC 29213; ATCC29213, read-out: MIC 100%, Study ROC003, 100%) of no more than 0.06 µg/mL, an MIC (S. aureus ATCC 29213; ATCC29213, read-out: MIC 100%, Study ROC004, 100%) of no more than 0.06 µg/mL and an MIC (S. aureus ATCC 29213; ATCC29213, read-out: MIC 100%, Study ROC005, 100%) of no more than 0.06 µg/mL. For the same compound, the MIC (S. aureus ATCC 29213; ATCC29213, read-out: MIC 100%, Study ROC006, 100%) was 0.12 µg/mL (≈ 0.313 µM), the MIC (S. aureus ATCC 29213; ATCC29213, read-out: MIC 100%, Study ROC007, 100%) was 0.12 µg/mL (≈ 0.313 µM) and the MIC (S. aureus ATCC 29213; ATCC29213, read-out: MIC 100%, Study ROC008, 100%) was 0.12 µg/mL (≈ 0.313 µM). It also gave an MIC (S. aureus ATCC 29213; ATCC29213, read-out: MIC 100%, Study ROC009, 100%) of no more than 0.06 µg/mL, an MIC (S. aureus ATCC 29213; ATCC29213, read-out: MIC 100%, Study ROC010, 100%) of no more than 0.06 µg/mL and an MIC (S. aureus ATCC 29213; ATCC29213, read-out: MIC 100%, Study ROC012, 100%) of no more than 0.06 µg/mL. The MIC (S. aureus ATCC 29213; ATCC29213, read-out: MIC 100%, Study ROC013, 100%) was 0.12 µg/mL (≈ 0.313 µM), the “delta 24 hr” value (A. baumannii; A. baumannii ACC00535 (APV00535), neutropenic mice, MERO 100 mg/kg, 24 h, change of average log CFU/thigh vs vehicle at 24 h) was 0.67 and the “Thigh bacterial burden outcome” value (A. baumannii; ACC00535, neutropaenic mice) was “bacterial outgrowth”. The MIC (C. albicans ATCC 90028; ATCC90028) was greater than 64 µg/mL and the MIC (C. albicans ATCC 90028; ATCC90028, read-out: MIC 100%) was greater than 64 µg/mL.
